pIC50: −log10 of the molar value. Several values for one entry are separate records, joined by “and”; a condition that tells them apart may be missing. Equal values may be shown once. Where a name gives a salt, the structure may show the parent alone. Read-outs that look alike come from different tables or passages of the source.
Columns and labels:
[1] = biological target: T1, recombinant human ACE2 (rhACE2) (Homo sapiens, UniProt Q9BYF1); assay: ACE2 exopeptidase inhibitor screening assay (fluorogenic substrate), AMB and BHH; type: biochemical
T1 construct: purchased BPS Bioscience 79923
Method: ACE2 Inhibitor Screening Assay. An ACE2 exopeptidase Inhibitor screening assay kit with the fluorogenic substrate (Catalogue #79923) was purchased from BPS Bioscience (San Diego, CA) and modified to measure the exopeptidase activity of ACE2 in the presence and absence of inhibitors (BPSBioscience, 2022). Following the manufacturer's directions, the fluorescence assay was carried out in a 96-well black flat-bottom plate with a final reaction volume of 50 μL. 50 mM stock solutions of BHH and AMB in 100% DMSO were prepared. Compounds were serially diluted in DMSO as follows: 500, 250, 100, 50, 10, 1, 0.1 μM. All experiments were done in triplicates and repeated twice. A positive control of enzyme treated with vehicle alone (2 percent DMSO) and a blank control with no enzyme were included on each plate.
Each reaction had 24 μL of purified recombinant human ACE2 protein (0.42 ng/L) in ACE2 buffer, 1 μL of the compound at different concentrations, and 25 μL ACE2 fluorogenic substrate. The final volume of the reaction was 50 μL. The reaction mixtures were incubated for 1 hr at room temperature (22° C.) and protected from light. After that, the fluorescence intensities (λExcitation=535 nm, λEmission=595 nm) were measured using a Spectramax iD3 multimode plate reader. The background hydrolysis was subtracted, and the data were fitted to a four-parameter logistic (variable slope) equation using GraphPad prism software 9.1.

Vero E6 cells = conditions: Vero E6
SARS-CoV-2 USA_WA1/2020 [2] = conditions: hamster
ACE1 [3] = assay: Western blotting, ACE1 expression in A549 cells; type: cell-based, human; conditions: 50 μm, 24 hrs and 48 hrs
Method: (§1) Western blotting. A549 “Lung” cells (RRID:CVCL_COQ5) were harvested in a radioimmuno precipitation assay (RIPA) buffer (Tris 10 mM pH 7.4, containing 140 mM NaCl, 1 mM EDTA, 1 mM NaF, 0.10% SDS, 0.50% sodium deoxycholate 0.1% NP-40, 1% Triton X-100) in the presence of protease inhibitors (Thermo Fisher) at 24 hrs. and 48 hrs. Protein concentration was determined by was determined using bicinchoninic acid with bovine serum albumin as a standard (Thermo Fisher). Equal amounts of protein were loaded and separated by SDS-PAGE using 10% pre-casted gels (Biorad). Proteins were electroblotted onto nitrocellulose membranes (Bio-Rad). The blots were blocked using 5% (w/v) milk in Tris-buffered saline containing 0.5% (v/v) Tween-20. The membranes were then incubated with different antibodies. Antibodies directed against ACE1 (ab28311) and ACE2 (ab108209) were used and the GAPDH antibody was used as loading control for cell lysates. Primary and secondary antibodies were diluted in Tris-buffered saline containing (0.5% v/v) Tween-20 (TBS-T) supplemented with 5% milk. The bands were visualized by incubating the blots with enhanced chemiluminescence reagent (ECL, Biorad) and visualized using chemidoc. Band intensities were quantified by using imagelab software Biorad.

ACE2 = assay: Western blotting, ACE2 expression in A549 cells; type: cell-based, human; conditions: 50 μm, 24 hrs and 48 hrs
Method: as §1

SARS-CoV-2 USA_WA1/2020 [4] = assay: microbe, parasite or virus in culture; type: cell-based
ACE1 [5] = biological target: T2, ACE1 (Homo sapiens, UniProt P12821); assay: ACE1 activity assay (colorimetric); type: biochemical
T2 construct: purchased Sigma-Aldrich MAK422
Method: ACE1 Activity Assay. ACE1 Inhibitor Screening Kit (Cat #MAK422) was purchased from Sigma-Aldrich (St. Louis, MO) and adapted to determine the effect of BHH and AMB on the enzymatic activity of ACE (Aldrich, 2022). The in vitro colorimetric assay was performed in a transparent flat-bottom 96-well plate. 50 mm and 10 mm solutions of Captropil, a known ACE1 inhibitor were used as a positive inhibitor control. Stock solutions of the compounds were prepared in 100% Dimethyl sulfoxide (DMSO) and further serially diluted in DMSO as follows: 500, 100, 50,10,5,1 and 0.5 μm for AMB and the positive control Captropil. All experiments were performed in quadruplicates. Each plate contained positive controls (1% DMSO) and blank controls with no ACE1 enzyme. Specifically, 2.5 μl of serially diluted compounds were pre-incubated with 2 μl of ACE1 protein diluted in 38 μl of 1× assay diluent buffer for about 15 mins, at room temperature (22° C.). 157.5 μl of 1×ACE1 assay buffer (197.5 μl for −ve control) was added into the 96 well plates. The solution was mixed well and incubated at 37° C. for 15-20 minutes, protected from light. After that, 40 μl of the substrate was added to each well and mixed well. The absorbance was measured immediately at 345 nm (A345) in kinetic mode for 60 minutes.

T2 sequence (P12821 30-1306): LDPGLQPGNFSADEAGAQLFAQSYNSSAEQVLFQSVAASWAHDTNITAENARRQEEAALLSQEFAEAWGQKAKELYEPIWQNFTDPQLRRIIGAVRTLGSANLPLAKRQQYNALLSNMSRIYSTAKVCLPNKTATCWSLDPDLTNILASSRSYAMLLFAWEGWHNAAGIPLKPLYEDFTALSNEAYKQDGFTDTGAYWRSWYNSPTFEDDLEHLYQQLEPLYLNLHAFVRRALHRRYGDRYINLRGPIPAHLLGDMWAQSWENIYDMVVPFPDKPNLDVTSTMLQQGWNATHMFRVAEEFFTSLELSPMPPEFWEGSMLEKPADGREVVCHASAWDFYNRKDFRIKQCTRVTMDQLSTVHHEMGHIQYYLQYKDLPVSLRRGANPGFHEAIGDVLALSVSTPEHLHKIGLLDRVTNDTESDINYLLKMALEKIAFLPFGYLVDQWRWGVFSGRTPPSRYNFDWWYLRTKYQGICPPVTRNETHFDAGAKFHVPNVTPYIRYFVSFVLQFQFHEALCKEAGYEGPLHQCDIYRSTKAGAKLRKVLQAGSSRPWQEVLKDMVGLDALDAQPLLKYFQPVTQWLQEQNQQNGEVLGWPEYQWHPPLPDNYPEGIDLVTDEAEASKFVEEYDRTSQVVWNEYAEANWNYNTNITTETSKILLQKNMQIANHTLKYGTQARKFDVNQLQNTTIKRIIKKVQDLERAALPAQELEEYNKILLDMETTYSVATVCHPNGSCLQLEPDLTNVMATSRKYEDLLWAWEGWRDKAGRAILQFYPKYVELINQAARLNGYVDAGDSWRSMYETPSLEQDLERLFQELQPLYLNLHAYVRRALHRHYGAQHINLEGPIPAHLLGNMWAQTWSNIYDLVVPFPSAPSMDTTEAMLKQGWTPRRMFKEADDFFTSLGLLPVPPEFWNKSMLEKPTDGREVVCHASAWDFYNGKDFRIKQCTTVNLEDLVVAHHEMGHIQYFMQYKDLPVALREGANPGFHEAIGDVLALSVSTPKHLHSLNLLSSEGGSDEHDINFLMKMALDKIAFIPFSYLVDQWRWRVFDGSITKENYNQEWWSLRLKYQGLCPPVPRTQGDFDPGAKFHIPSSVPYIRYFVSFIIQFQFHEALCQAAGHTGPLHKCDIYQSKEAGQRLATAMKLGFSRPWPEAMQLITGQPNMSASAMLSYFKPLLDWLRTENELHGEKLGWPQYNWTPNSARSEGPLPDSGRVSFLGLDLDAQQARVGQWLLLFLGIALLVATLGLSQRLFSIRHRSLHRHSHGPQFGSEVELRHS
T1 sequence (Q9BYF1 18-805): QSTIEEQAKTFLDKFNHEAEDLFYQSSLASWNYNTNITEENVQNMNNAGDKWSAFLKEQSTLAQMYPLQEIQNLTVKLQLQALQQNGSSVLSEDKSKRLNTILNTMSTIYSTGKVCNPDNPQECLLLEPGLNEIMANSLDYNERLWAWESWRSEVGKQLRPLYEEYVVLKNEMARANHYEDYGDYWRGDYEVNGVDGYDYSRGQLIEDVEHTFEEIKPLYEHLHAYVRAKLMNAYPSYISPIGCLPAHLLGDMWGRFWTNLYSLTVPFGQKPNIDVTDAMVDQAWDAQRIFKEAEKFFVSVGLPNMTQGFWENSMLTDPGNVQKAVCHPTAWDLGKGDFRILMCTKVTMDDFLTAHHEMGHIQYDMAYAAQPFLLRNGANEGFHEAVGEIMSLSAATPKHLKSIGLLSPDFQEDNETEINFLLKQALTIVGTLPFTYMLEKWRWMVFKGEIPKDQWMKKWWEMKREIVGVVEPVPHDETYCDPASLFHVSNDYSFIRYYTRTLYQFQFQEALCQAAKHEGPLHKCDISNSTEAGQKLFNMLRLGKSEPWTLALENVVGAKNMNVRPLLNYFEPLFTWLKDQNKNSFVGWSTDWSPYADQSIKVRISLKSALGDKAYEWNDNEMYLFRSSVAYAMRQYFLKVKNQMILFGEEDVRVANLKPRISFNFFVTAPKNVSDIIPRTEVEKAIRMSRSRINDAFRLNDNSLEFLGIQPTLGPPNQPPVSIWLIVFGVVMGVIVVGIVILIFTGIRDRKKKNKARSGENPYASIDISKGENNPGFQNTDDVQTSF

Nc1c(Br)cc(Br)cc1CN[C@H]1CC[C@H](O)CC1 [AMB, 4-[(2-amino-3,5-dibromophenyl)methylamino]cyclohexan-1-ol; hydrochloride]
ACE2 Exopeptidase Activity: Percent Activity ([1]; 0.1 uM): 148.7%
inhibition at 0.1 µM ([1]; 0.1 uM, read-out: ACE2 Exopeptidase Activity: Percent Inhibition): -48.7%
ACE2 Exopeptidase Activity: Percent Activity ([1]; 1 uM): 152.3%
inhibition at 1 µM ([1]; 1 uM, read-out: ACE2 Exopeptidase Activity: Percent Inhibition): -52.3%
ACE2 Exopeptidase Activity: Percent Activity ([1]; 10 uM): 159.9%
inhibition at 10 µM ([1]; 10 uM, read-out: ACE2 Exopeptidase Activity: Percent Inhibition): -59.9%
ACE2 Exopeptidase Activity: Percent Activity ([1]; 50 uM): 157.1%
inhibition at 50 µM ([1]; 50 uM, read-out: ACE2 Exopeptidase Activity: Percent Inhibition): -57.1%
ACE2 Exopeptidase Activity: Percent Activity ([1]; 100 uM): 156.9%
inhibition at 100 µM ([1]; 100 uM, read-out: ACE2 Exopeptidase Activity: Percent Inhibition): -56.9%
ACE2 Exopeptidase Activity: Percent Activity ([1]; 250 uM): 144.7%
inhibition at 250 µM ([1]; 250 uM, read-out: ACE2 Exopeptidase Activity: Percent Inhibition): -44.7%
ACE2 Exopeptidase Activity: Percent Activity ([1]; 500 uM): 141.0%
inhibition at 500 µM ([1]; 500 uM, read-out: ACE2 Exopeptidase Activity: Percent Inhibition): -41%
effect on exopeptidase activity of rhACE2 ([1]; tested 0.1 to 500 μM): did not inhibit
Conc. at Max. % Viability (Vero E6 cells; Example C (Table 4)): 0.59 µM
Conc. at Min. % Viability (Vero E6 cells; Example C (Table 4)): 300 µM
Min. Viability (Vero E6 cells; Example C (Table 4)): 0.55%
Max. Viability (Vero E6 cells; Example C (Table 4), hydrochloride): 96% and 96.64%
percent minimum viability (Vero E6 cells; at 30 μM, Example B): 113.95%
Overall Gmean Days 1-4, E sgRNA, rectal swabs (SARS-CoV-2 USA_WA1/2020 [2]): 4.21 copies/swab
Overall Gmean Days 1-4 higher than Group 3, E sgRNA, rectal swabs (SARS-CoV-2 USA_WA1/2020 [2]): 3 fold
Peak viral load versus Group 3, N2 gRNA, rectal swabs (SARS-CoV-2 USA_WA1/2020 [2]): similar
Peak viral replication load higher than Group 3, E sgRNA, rectal swabs (SARS-CoV-2 USA_WA1/2020 [2]): 6 fold
SARS-CoV-2 genome load, N2 gRNA, lungs (SARS-CoV-2 USA_WA1/2020 [2]; Day 4): 4.03E+09 copies/gram
SARS-CoV-2 genome load, N2 gRNA, trachea (SARS-CoV-2 USA_WA1/2020 [2]; Day 4): 6.24E+08 copies/gram
active replication load higher than Group 3, E sgRNA, lungs (SARS-CoV-2 USA_WA1/2020 [2]; Day 4): 2 fold
active replication load, E sgRNA, lungs (SARS-CoV-2 USA_WA1/2020 [2]; Day 4): 2.78E+07 copies/gram
active replication load, E sgRNA, nasal turbinate (SARS-CoV-2 USA_WA1/2020 [2]; Day 4): 1.09E+08 copies/gram
active replication load, E sgRNA, trachea (SARS-CoV-2 USA_WA1/2020 [2]; Day 4): 1.11E+06 copies/gram
genome load higher than Group 3, N2 gRNA, lungs (SARS-CoV-2 USA_WA1/2020 [2]; Day 4): 2 fold
replication load higher than Group 3, E sgRNA, trachea (SARS-CoV-2 USA_WA1/2020 [2]; Day 4): similar
viral load higher than Group 3, N2 gRNA, trachea (SARS-CoV-2 USA_WA1/2020 [2]; Day 4): similar
serum IL-6 levels versus Group 3 (SARS-CoV-2 USA_WA1/2020 [2]; Day 4, ELISA, P<0.05): significantly lower
serum TNF-α versus Group 3 (SARS-CoV-2 USA_WA1/2020 [2]; Day −1, Day 2 (P<0.05), Day 4 (P<0.001)): significantly low
serum IL-10 levels between groups (SARS-CoV-2 USA_WA1/2020 [2]; Days −1, 2, 4): No significance difference
tolerability of administered doses (SARS-CoV-2 USA_WA1/2020 [2]; in vivo): tolerated the administered doses well
incidence and severity of microscopic lesions versus vehicle control (SARS-CoV-2 USA_WA1/2020 [2]; lung histopathology): similar
lung viral load by TCID50 assay versus vehicle control (SARS-CoV-2 USA_WA1/2020 [2]; lung samples Day 4): No difference
SARS-CoV-2 genome load, N2 gRNA, nasal turbinate (SARS-CoV-2 USA_WA1/2020 [2]; necropsy Day 4): 3.57E+10 copies/gram
gross lesions in the lung (SARS-CoV-2 USA_WA1/2020 [2]; necropsy Day 4): reduced gross lesions in the lung
Overall Gmean Days 1-4, E sgRNA, pharyngeal swabs (SARS-CoV-2 USA_WA1/2020 [2]; AMB 500, BHH 200 mg/kg/day PO): 1.89E+04 copies/swab
Overall Gmean Days 1-4 lower than Group 3, E sgRNA, pharyngeal swabs (SARS-CoV-2 USA_WA1/2020 [2]; AMB 500, BHH 200 mg/kg/day PO): 5 fold
Overall Gmean Days 1-4 viral load lower than Group 3, N2 gRNA, pharyngeal swabs (SARS-CoV-2 USA_WA1/2020 [2]; AMB 500, BHH 200 mg/kg/day PO): 4 fold
Overall Gmean viral load Days 1-4, N2 gRNA, pharyngeal swabs (SARS-CoV-2 USA_WA1/2020 [2]; AMB 500, BHH 200 mg/kg/day PO): 4.93E+07 copies/swab
Peak viral load lower than vehicle (Group 3), N2 gRNA, pharyngeal swabs (SARS-CoV-2 USA_WA1/2020 [2]; AMB 500, BHH 200 mg/kg/day PO): 16 fold
Peak viral replication load lower than Group 3, E sgRNA, pharyngeal swabs (SARS-CoV-2 USA_WA1/2020 [2]; AMB 500, BHH 200 mg/kg/day PO): 34 fold
Peak viral load, N2 gRNA, pharyngeal swabs (SARS-CoV-2 USA_WA1/2020 [2]; AMB 500, BHH 200 mg/kg/day PO, peak Day 2 (AMB), Day 1 (BHH)): 9.01E+06 copies/swab
Peak viral replication load, E sgRNA, rectal swabs (SARS-CoV-2 USA_WA1/2020 [2]; peak Day 1 (AMB), Day 2 (BHH)): 20.15 copies/swab
Peak viral replication load, E sgRNA, pharyngeal swabs (SARS-CoV-2 USA_WA1/2020 [2]; peak Day 2 (AMB), Day 1 (BHH)): 2.79E+04 copies/swab
Peak viral load, N2 gRNA, rectal swabs (SARS-CoV-2 USA_WA1/2020 [2]; peak on Day 2): 9.75E+04 copies/swab
change of ACE1 expression (ACE1 [3]): no changes
change of ACE2 expression (ACE2): no changes
Concentration at Maximum % Inhibition (SARS-CoV-2 USA_WA1/2020 [4]; Example C (Table 3)): 150 µM
Maximum Inhibition (SARS-CoV-2 USA_WA1/2020 [4]; Example C (Table 3)): 49.87%
pIC50 (SARS-CoV-2 USA_WA1/2020 [4]; Example C (Table 3), hydrochloride, read-out: IC 50 against SARS-COV-2 Induced Cytopathic Effect in Vero E6 Cells): < 3.82
pIC50 (SARS-CoV-2 USA_WA1/2020 [4]; Severe acute respiratory syndrome coronavirus 2, Vero C1008, Example C (Table 3), read-out: IC 50 against SARS-COV-2 Induced Cytopathic Effect in Vero E6 Cells): ≤ 3.82
pIC50 (SARS-CoV-2 USA_WA1/2020 [4]; Severe acute respiratory syndrome coronavirus 2, Vero C1008, Vero E6, Example B, highest concentration tested 30 μM, read-out: IC50 against SARS-CoV-2 infection induced CPE): < 4.52
inhibition at 30 µM (SARS-CoV-2 USA_WA1/2020 [4]; Severe acute respiratory syndrome coronavirus 2, Vero C1008, at 30 μM, Example B, read-out: inhibition of SARS-CoV-2 induced CPE at maximum concentration): 14.2%
remaining activity at 500 µM (ACE1 [5]; 500 μM, read-out: ACE activity remaining): 100%
effect on exopeptidase activity of ACE (ACE1 [5]; hydrochloride): did not inhibit the activity of ACE

Source: patent US20240285552A1 (priority 2020, published 2024)
